The text below walks through data of patent US20240041823A1, “USE OF MYCOLACTONE (MLN) AND DERIVATIVES THEREOF FOR TREATMENT OF MICROBIAL INFECTIONS” (priority 2022, published 2024).

The test system of data set [1] is SARS-CoV-2. Description: Viral inhibition by Spike immunohistochemistry (IHC) assay in A549-ACE2 cells. In kind it is cell-based. To be noted: for IC50: read-out: IC-50, Anti-SARS-CoV-2; for 80% Inhibition of SARS-CoV-2: concentration giving 80% inhibition.
Data set [2] has as its system SARS-CoV-2 Omicron strain. The data set can be described thus: microbe, parasite or virus in culture. In kind it is cell-based. To be noted: read-out: efficacy (viral titer reduction).
Data set [3] concerns Human hepatoma cell line Huh7.1. To be noted: Huh7.1, maximum concentration tested 1.34 μM.
The test system of data set [4] is immortalized Human fetal renal cell line HEK293. To be noted: HEK293, maximum concentration tested 1.34 μM.
Data set [5] relates to Human alveolar cell line A549. To be noted: A549, maximum concentration tested 1.34 μM.
In data set [6] the test system is SARS-CoV-2 Delta strain. Description: microbe, parasite or virus in culture. It is filed as cell-based. To be noted: read-out: efficacy (viral titer reduction).
For data set [7] the following is noted: intradermal injection; cited from earlier work.
In data set [8] the test system is A549, HEK293, and HUH7.1 cell lines.
Data set [9] relates to SARS-CoV-2 Alpha strain. The data set can be described thus: microbe, parasite or virus in culture. In kind it is cell-based. To be noted: read-out: efficacy (viral titer reduction).
For data set [10], the system named is SARS-CoV-2. In kind it is cell-based.
[11] abbreviates: Severe acute respiratory syndrome coronavirus 2, plaque assay.

“And” between values parts separate entries of the source, which are not always exact repeats. Equal values may be shown once. “Also recorded” adds a separate entry of the source. Read-outs that look alike come from different tables or passages of the source.

Take mycolactone [MLN]: the IC50 was 20 ± 6 nM in [1] (A549-ACE2 cells, Spike IHC); 7 nM in data set [2] (plaque assay); 15 nM in [6] (plaque assay); 20 nM in [9] (plaque assay). In addition, the inhibition in data set [1] (at 20 nM) was 90%; in data set [1] (at 42 nM), 100%. The molecule further came in with an average inhibition in data set [1] (at 30nM, IHC assay in triplicate) of 84%. In addition, in data set [1], the “80% Inhibition of SARS-CoV-2” value is 0.03 µM and 0.03 ± 0.005 µM. For the same molecule, the “viral inhibition against SARS-CoV-2” value in data set [1] (up to 60nM, IHC assay in triplicate) amounted to 100%. The Cytotoxicity in data set [3] stood at 36.25±5.6%; in [4] it was 40.30±3.6%; in [5] it was 17.12±9.1%. Moreover, the “half-life in the periphery blood circulation” value in [7] is recorded as “short”. For the same molecule, the “cytotoxicity IC50 breakpoint ratio versus anti-SARS-CoV-2 activity” value in data set [8] (1.34 μM maximum concentration versus average IC50s) is “more than 65 ×”. Also, in data set [8] (in vitro), the “cytotoxicity against human cell lines” value was “not cytotoxic”. Besides, the “blocking of virus entry” value in data set [10] is listed as “complete blocking activity; also recorded: completely blocks; also recorded: complete prevention”. Further, the “blocking of virus spread” value in data set [10] was “complete blocking activity; also recorded: completely blocks; also recorded: complete prevention”.
Turning to `COc1cccc2[nH]c(C(=O)N[C@@H](CC(C)C)C(=O)N[C@@H](C[C@@H]3CCNC3=O)C(=O)CO)cc12` [PF-00835231, reference compound], in data set [1], the “80% Inhibition of SARS-CoV-2” value came to 0.68 µM and the IC50 came to 230 ± 30 nM. Besides, in [1] (listed as PF-00835231 (Pfizer)), the “80% Inhibition of SARS-CoV-2” value was determined as 0.68 ± 0.023 µM.
With `CCC(CC)COC(=O)[C@H](C)N[P@](=O)(OC[C@H]1O[C@@](C#N)(c2ccc3c(N)ncnn23)[C@H](O)[C@@H]1O)Oc1ccccc1` [Remdesivir, reference compound], the IC50 in data set [2] (setting [11]) was 125 nM; in data set [6] (setting [11]) it was 139 nM; in data set [9] (setting [11]), 248 nM.

By inhibition is commonly meant the change of the read-out against control, counted positive when it falls. Higher therefore signals strong suppression.
